Source: patent US20240058352A1, “COMBINATION THERAPIES FOR THE TREATMENT OF CANCER” (Erasca, Inc., priority 2020, published 2024)

System: cell viability
Assay: Cellular proliferation assay (percent CTG activity, FIG. 23C)
Type: cell-based
Details: agent alone, cell line not stated

**Q.** `COCOC[C@H]1C[C@H]2COc3c(Sc4cnc(N5CCC6(CC5)CO[C@@H](C)[C@H]6N)c(CO)n4)ccnc3N2C1` [compound of Formula I] was tested. Which “percent CTG activity (cell viability), single agent” value did it give?
**A.** Its value is “minimal effect on cell viability”.
